The results in this text go back to ChEMBL document CHEMBL1155104, “Gallic acid-based indanone derivatives as anticancer agents” (Bioorg Med Chem Lett, 2008).

Broadly, the IC50 is the point on the concentration scale where inhibition reaches its midpoint. Read a low IC50 as inhibition by little substance.

The subject of one data set is Caco-2. The experiment in a line: Cytotoxicity against human CaCO2 cells after 24 hrs by MTT assay. It counts as functional, cell-based. The following applies: Caco-2, 24 h. (In general: Tetrazolium dyes change colour on reduction, which living cells bring about.)
The subject of a further data set is WRL68. The experiment in a line: Cytotoxicity against human WRL68 cells after 24 hrs by MTT assay. The conditions noted are these: WRL68, 24 h. The format is functional, cell-based.
The test system of a further data set is HepG2. Description: Cytotoxicity against human HEPG2 cells after 24 hrs by MTT assay. The conditions noted are these: HepG2, 24 h. It counts as functional, cell-based.
A short description of data set [1]: Cytotoxicity against human KB403 cells after 24 hrs by MTT assay. The format is functional, cell-based. The conditions noted are these: KB403, 24 h.
The subject of the next data set is MCF7. The experiment in a line: Cytotoxicity against human MCF7 cells after 24 hrs by MTT assay. The format is functional, cell-based. The conditions noted are these: MCF7, 24 h.
The nature of data set [2]: Toxicity in human erythrocytes assessed as osmotic hemolysis. It counts as cell-based. The following applies: erythrocyte.
A short description of data set [3]: Toxicity in human erythrocytes assessed as osmotic hemolysis at 258 uM. It counts as cell-based. The following applies: erythrocyte.

As to `COc1cc(C2CCc3cc(OC)c(OC)c(OC)c32)cc(OC)c1OC` (centres undefined), the IC50 in the data set on Caco-2 was 115 µM; with WRL68 it was 154 µM; in the data set with HepG2, 89.7 µM; in data set [1], at least 250 µM; in the data set with MCF7, at least 250 µM.

For `COc1cc2c(cc1OC)C(c1cc(OC)c(OC)c(OC)c1)CC2=O` (centres undefined), the half-inhibitory concentration (IC50) was 140 µM with Caco-2; 196 µM with WRL68; 112 µM with HepG2; 140 µM in data set [1]; at least 250 µM in the data set with MCF7.

As to `COc1cc(OC)c(C2CC(=O)c3cc(OC)c(OC)c(OC)c32)c(OC)c1` (centres undefined), the IC50 in the data set on Caco-2 was 226 µM; in the data set on WRL68, 0.022 µM; with HepG2, 1.49 µM; in data set [1], 12.9 µM; in the data set with MCF7, 211 µM. Also, the Activity entry in data set [2] is listed as “Toxic”.

Regarding `COc1ccc(C2CC(=O)c3cc(OC)c(OC)c(OC)c32)c(OC)c1OC` (centres undefined), the IC50 with Caco-2 was 206 µM; in the data set on WRL68, 0.023 µM; in the data set with HepG2, at least 250 µM; in data set [1], 1.54 µM; in the data set with MCF7, at least 250 µM. Also, the Activity result in data set [2] is reported as “Toxic”.

Turning to `COc1cc2c(c(OC)c1OC)-c1c(oc3c(OC)c(OC)c(OC)cc13)C2=O`, the IC50 in the data set on Caco-2 is 112 µM; with WRL68, 62.5 µM; in the data set on HepG2, at least 250 µM; in data set [1] it was at least 250 µM; in the data set with MCF7, 50 µM.

Consider `COc1cccc(C2CC(=O)c3cc(OC)c(OC)c(OC)c32)c1` (centres undefined), for which the IC50 (with Caco-2; with WRL68; in the data set on HepG2; in data set [1]; in the data set on MCF7) was at least 250 µM each time.

For `COc1cc(C2CC(O)c3cc(OC)c(OC)c(OC)c32)cc(OC)c1OC` (centres undefined), the half-maximal inhibitory concentration (IC50) in the data set on Caco-2 is 6.4 µM; with WRL68, 192 µM; in the data set on HepG2 it was 102 µM; in data set [1], 192 µM; in the data set on MCF7, 244 µM.

With `COc1cc(C2CC(=O)c3cc(OC)c(OC)c(OC)c32)cc(OC)c1OC` (centres undefined), the half-maximal inhibitory concentration (IC50) in the data set on Caco-2 was at least 250 µM; in the data set with WRL68 it was 12.8 µM; in the data set on HepG2, 9 µM; in data set [1], 10.3 µM; in the data set on MCF7, 2.2 µM. Moreover, the Activity entry in data set [3] is reported as “Non-toxic”.

Turning to `COc1cc(C2C/C(=N\O)c3cc(OC)c(OC)c(OC)c32)cc(OC)c1OC` (centres undefined), the 50% inhibitory concentration (IC50) in the data set on Caco-2 was 49.6 µM; in the data set with WRL68 it was 223 µM; with HepG2, 124 µM; in data set [1] it was 136 µM; in the data set on MCF7, at least 250 µM.

Regarding `CC(=O)O[C@H]1C(=O)[C@@]2(C)[C@H]([C@H](OC(=O)c3ccccc3)[C@]3(O)C[C@H](OC(=O)[C@H](O)[C@@H](NC(=O)c4ccccc4)c4ccccc4)C(C)=C1C3(C)C)[C@]1(OC(C)=O)CO[C@@H]1C[C@@H]2O` [PACLITAXEL], the IC50 with Caco-2 was 0.008 µM; with WRL68, 0.004 µM; in the data set on HepG2 it was 0.009 µM; in data set [1] it was 0.001 µM; in the data set with MCF7 it was 0.006 µM.

In the case of `COc1cc(C2=C(O)C(=O)c3cc(OC)c(OC)c(OC)c32)cc(OC)c1OC`, the IC50 in the data set with Caco-2 was at least 250 µM; in the data set on WRL68 it was 124 µM; with HepG2, 74.6 µM; in data set [1], at least 250 µM; in the data set with MCF7, at least 250 µM.

In the case of `COc1cc([C@@H]2c3cc4c(cc3[C@H](O)[C@H]3COC(=O)[C@H]23)OCO4)cc(OC)c1OC` [PODOFILOX], the concentration for half-maximal inhibition (IC50) came to 0.002 µM with Caco-2; 4.8 µM with WRL68; 4.8 µM with HepG2; 20.5 µM in data set [1]; 8.5 µM with MCF7.

Take `COc1cc2c(c(OC)c1OC)C(c1ccccc1)CC2=O` (centres undefined): the IC50 in the data set with Caco-2 was at least 250 µM; in the data set with WRL68, at least 250 µM; in the data set on HepG2 it was 188 µM; in data set [1], 0.84 µM; in the data set on MCF7, at least 250 µM. The Activity result in data set [2] is reported as “Toxic”.
